Source: patent publication US20220023325A1, “SPECIFIC TLR4 ANTAGONIST IN THE TREATMENT OF MULTIPLE MYELOMA” (Etablissement Français du Sang, priority 2016, published 2022)
Values joined by “and” are separate entries in the source; they are usually repeats but may differ in a detail not shown here. Equal entries are not always repeated.

How the values were obtained:
[1] = test system: MOLP-6 cells; experiment: MOLP-6 myeloma cells cultured alone, treated with C34; format: cell-based, human; details: MOLP-6 alone, C34 1 μM or 10 μM
Description: (§1) FIG. 9: Number of myeloma cells (MOLP-6)after culture of MOLP-6 alone untreated (NT) or treated with 1 μM or 10 μM of C34 (TLR4 antagonist), or in coculture with a stroma of MSCs from healthy or MM donors, untreated or treated with 1 μM or 10 μM C34.
(§2) To evaluate the role of TLR4 in the MSC/myeloma cell interaction, the inventors used a specific TLR4 antagonist, the C34 compound, marketed by Tocris, and a stroma-dependent myeloma cell line, the MOLP-6 line. Some studies have used stroma-independent myeloma cell lines such as MM1S or RPM18226. In this study, in order to approach the pathology and mimic real interactions between MSC and plasma cells, the inventors used a stroma-dependent cell line for its proliferation. Indeed, during MM (in the establishment and maintenance phases of the disease), myeloma cells strongly adhere to the MSCs of the stroma, which gives chemoresistance and survival signals favoring the evolution of MM.
(§3) Then they treated the healthy MSCs and MM with the C34 before and in co-culture with the MOLP-6. With the healthy stroma, the C34 antagonist (at 1 and 10 μM) has no effect on the growth support of MOLP-6, whereas with the stroma of MM, the TLR4 antagonist affects growth of MOLP-6 cells at the two doses used (33% decrease, FIG. 9).

[2] = test system: MOLP-6 cells; experiment: MOLP-6 growth in coculture with stroma of MM patient MSCs; format: cell-based, human
Description: as §1, §2, §3
The inventors co-cultured MSCs from 4 healthy donors (H) or 5 patients suffering from MM (MYE) as well as stroma-dependent MOLP-6 plasma cells: • without treatment (NT) • in the presence of C34 alone at 1 μM (C34 1 μM), • in the presence of melphalan alone at 100 nM (Mel 100 nM), • in the presence of lenalidomide alone at 100 nM (Len 100 nM), • in the presence of a combination of C34 at 1 μM and melphalan at 100 nM (Mel 100 nM+C34 1 μM), or • in the presence of a combination of C34 at 1 μM and lenalidomide at 100 nM (Len 100 nM+C34 1 μM).
(§4) After 7 days of culture, they calculated the percent inhibition of plasmocyte growth (FIGS. 11 and 12).

[3] = test system: MOLP-6 cells; experiment: MOLP-6 growth in coculture with stroma of healthy donor MSCs; format: cell-based, human
Description: as §1, §2
as §3, with “9). […]” for “9).”
as §4

[4] = target: T1, TLR4 (Homo sapiens, UniProt O00206+Q9Y6Y9); experiment: Secretion of soluble factors (IGF-1, IL6) by MM patient MSCs after TLR4 stimulation; format: cell-based
T1 construct: the TLR4 molecule is overexpressed both at the transcriptional level (mRNA) and at the protein level in the MM MSCs; endogenous in cells; host or cells: primary mesenchymal stromal cells (MSCs) of multiple myeloma patients
T1 sequence (O00206 24-839): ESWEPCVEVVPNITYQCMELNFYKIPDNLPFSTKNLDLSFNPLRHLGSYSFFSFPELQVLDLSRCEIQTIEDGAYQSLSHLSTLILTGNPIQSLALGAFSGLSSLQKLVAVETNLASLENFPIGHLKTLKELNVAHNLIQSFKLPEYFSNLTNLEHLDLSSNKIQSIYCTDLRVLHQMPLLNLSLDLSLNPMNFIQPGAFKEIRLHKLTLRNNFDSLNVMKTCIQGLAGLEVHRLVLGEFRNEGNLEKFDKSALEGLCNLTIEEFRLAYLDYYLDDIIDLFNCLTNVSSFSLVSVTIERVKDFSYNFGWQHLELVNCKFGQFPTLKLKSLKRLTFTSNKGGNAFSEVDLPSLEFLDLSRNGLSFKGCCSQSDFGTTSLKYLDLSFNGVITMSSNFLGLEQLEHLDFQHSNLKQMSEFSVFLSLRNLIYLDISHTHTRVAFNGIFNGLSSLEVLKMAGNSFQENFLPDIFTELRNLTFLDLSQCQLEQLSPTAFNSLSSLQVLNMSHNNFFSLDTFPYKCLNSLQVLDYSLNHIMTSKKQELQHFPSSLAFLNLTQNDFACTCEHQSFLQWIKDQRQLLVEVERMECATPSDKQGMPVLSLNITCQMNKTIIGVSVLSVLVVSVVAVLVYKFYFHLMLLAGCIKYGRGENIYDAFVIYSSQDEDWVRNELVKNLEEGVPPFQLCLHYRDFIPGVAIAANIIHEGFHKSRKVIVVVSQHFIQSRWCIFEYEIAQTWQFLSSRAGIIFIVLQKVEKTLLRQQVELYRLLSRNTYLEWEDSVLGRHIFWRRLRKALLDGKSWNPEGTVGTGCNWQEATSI
T1 sequence (Q9Y6Y9 17-160 limits assumed): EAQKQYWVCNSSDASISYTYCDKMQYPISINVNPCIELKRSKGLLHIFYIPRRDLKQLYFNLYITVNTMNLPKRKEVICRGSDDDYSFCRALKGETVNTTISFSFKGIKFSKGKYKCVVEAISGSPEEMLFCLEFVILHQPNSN
Source text: (§5) FIG. 6: Secretion of IL6 by MSCs from healthy donors or from patients with MM, stimulated or not with LPS.
FIG. 7: Secretion of IL6 by MSCs of healthy donors or from MM patients, whether stimulated or not with Hsp70.
(§6) The inventors also evaluated the effect of TLR4 stimulation on the soluble IGF-1 and IL6 factors involved in the survival and proliferation of myeloma cells.

[5] = target: T1, TLR4; experiment: Adhesion molecule expression on MM patient MSCs after TLR4 stimulation; format: cell-based
Source text: FIG. 3: Expression of different adhesion molecules involved in the interaction with MM plasma cells (CD49d, CD49e, CD54 and CD106) on the surface of MSCs of healthy subjects and patients with MM, stimulated or not with LPS. *p≤0.05**p≤0.01
FIG. 5: Expression of CD54 by MSCs from healthy donors or from patients with MM, whether stimulated or not with Hsp70. p*≤0.05
(§7) The inventors then studied the differential activation of TLR4 in the MSCs of healthy donors or MM patients. They analyzed the effect of stimulation by LPS, the TLR4 reference ligand widely described in the literature, on the expression of several adhesion molecules (CD49d/VLA-4, CD49e/VLA-5, CD54/ICAM-1 and CD106/VCAM-1) involved in the interaction between MSCs and malignant plasma cells. The level of expression (MFI: mean fluorescence intensity) of each molecule is shown in the histogram of FIG. 3.
In order to further investigate the role of TLR4 in the context of MM and to move closer to pathophysiology, the inventors stimulated MSCs with Hsp70, an endogenous ligand of TLR4 actively released in the MM microenvironment and secreted by the cell line of MM MOLP-6 (up to 200 ng/ml) (FIG. 4). In addition, this endogenous ligand has been described in the literature to have a chemoprotective role for MM malignant plasma cells (Nimmanapalli et al (2008) Br. Haematol 142: 551-561). […] Indeed Hsp-70 is a monomeric molecule and therefore induces a less important stimulation than LPS (multimeric). Nevertheless, once again, the MM MSCs respond better than the healthy MSCs.

[6] = target: T1, TLR4; experiment: Secretion of soluble factors (IGF-1, IL6) by healthy donor MSCs after TLR4 stimulation; format: cell-based
Source text: as §5, §6

[7] = target: T1, TLR4; experiment: Adhesion molecule expression on healthy donor MSCs after TLR4 stimulation; format: cell-based
Source text: as §7, with “FIG. 3: Expression of different adhesion molecules involved in the interaction with MM plasma cells (CD49d, CD49e, CD54 and CD106) on the surface of MSCs of healthy subjects and patients with MM, stimulated or not with LPS. *p≤0.05**p≤0.01 FIG. 5: Expression of CD54 by MSCs from healthy donors or from patients with MM, whether stimulated or not with Hsp70. p*≤0.05 The inventors” for “The inventors”

[8] = MM MSCs, stimulation with Hsp70

CC(=O)N[C@H]1[C@@H](OC(C)C)O[C@H](COC(C)=O)[C@@H](OC(C)=O)[C@@H]1OC(C)=O [C34]
direct effect on MOLP-6 cells (number of myeloma cells) [1]: did not directly affect | effect on inhibition of proliferation of MM plasmocytes in combination with lenalidomide ([2]; MM MSC coculture, C34 1 μM + lenalidomide 100 nM, 7 days): synergistic effect | effect on inhibition of proliferation of MM plasmocytes in combination with melphalan ([2]; MM MSC coculture, C34 1 μM + melphalan 100 nM, 7 days): synergistic effect | decrease of growth of MOLP-6 cells ([2]; stroma of MM, C34 at the two doses used (1 and 10 μM)): 33% | effect on inhibition of plasmocyte growth in the presence of chemotherapeutic agents ([3]; healthy MSC/MOLP-6 cocultures, C34 1 μM + melphalan or lenalidomide 100 nM, 7 days): no significant synergistic effect | effect on the growth support of MOLP-6 ([3]; healthy stroma, C34 at 1 and 10 μM): no effect

Hsp70: endogenous ligand of TLR4, chaperone heat shock protein 70
IL6 secretion [4, 8]: increases | CD54 expression [5, 8]: significantly increased

lipopolysaccharide [LPS]
IGF-1 secretion ([4]; MM MSCs, LPS stimulation): no effect | secretion of IL6 ([4]; MSCs of MM after LPS stimulation (unstimulated 0.08)): 0.7 pg/cell | secretion of IL6 ([6]; healthy MSCs after LPS stimulation (unstimulated 0.02)): 0.1 pg/cell | IGF-1 secretion ([6]; healthy MSCs, LPS stimulation): no effect | expression of CD49e ([7]; healthy MSC, LPS stimulation): significantly increased | expression of CD106 ([7]; healthy MSC, LPS stimulation): no effect | expression of CD49d ([7]; healthy MSC, LPS stimulation): no effect | CD54 MFI ([7]; healthy MSCs after LPS stimulation (basal 9.6)): 148.7 and 149 | expression of CD49e ([5]; MM MSC, LPS stimulation): significantly increased | expression of CD106 ([5]; MM MSC, LPS stimulation): no effect | expression of CD49d ([5]; MM MSC, LPS stimulation): no effect | CD54 MFI ([5]; MSCs of MM after LPS stimulation (basal 4.3)): 215.9 and 216
